Laboratory results published in patent US9029553B2, “2-anilino nicotinyl linked 2-amino benzothiazole conjugates and process for the preparation thereof” (Council of Scientific & Industrial Research, priority 2011, dated 2015).

How the values were obtained:
[1] = test system: normal monkey kidney CV-1 cells; test: MTT cytotoxicity in normal cells; assay type: cell-based; conditions: Primates
Protocol: These compounds were also evaluated for their cytotoxic potential in normal cells and for these purpose their IC50 value were also determine in normal monkey kidney CV-1 cells by using MTT method. The ratios of normal to cancer cells IC50 value were ranges from 10-1000 times (Table 5).

IGR-OV-1 = test: SRB percentage growth inhibition (NCI protocol); assay type: cell-based; conditions: Homo sapiens, IGROV-1, 48 hrs exposure
Protocol: (§1) 2-Anilino nicotinyl linked 2-amino benzothiazoles conjugates of formula 4-8 have been tested against ten and eleven human cancer cell lines for 10 and 1 μM respectively derived from nine cancer types (leukemia, non-small cell lung cancer, colon cancer, CNS cancer, melanoma, ovarian cancer, renal cancer, prostate cancer and breast cancer) as per NCI protocol. For each compound, percentage of growth inhibition was calculated for individual cell lines at a minimum of two concentrations (1 and 10 μM). A protocol of 48 hrs continuous drug exposure was used, and a sulforhodamine B (SRB) protein assay was used to estimate cell viability or growth. The percentage of growth inhibition compared with the control was calculated in table 1 and table 2.

MCF-7 [2] = test: SRB percentage growth inhibition (NCI protocol); assay type: cell-based; conditions: Homo sapiens, MCF7, 48 hrs exposure
Protocol: as §1

OVCAR-5 = test: SRB percentage growth inhibition (NCI protocol); assay type: cell-based; conditions: Homo sapiens, 48 hrs exposure
Protocol: as §1

IMR-32 = test: SRB percentage growth inhibition (NCI protocol); assay type: cell-based; conditions: Homo sapiens, 48 hrs exposure
Protocol: as §1

HCT-15 [3] = test: SRB percentage growth inhibition (NCI protocol); assay type: cell-based; conditions: Homo sapiens, 48 hrs exposure
Protocol: as §1

HEP-2 = test: SRB percentage growth inhibition (NCI protocol); assay type: cell-based; conditions: Homo sapiens, 48 hrs exposure
Protocol: as §1

Hela [4] = test: SRB percentage growth inhibition (NCI protocol); assay type: cell-based; conditions: Homo sapiens, 48 hrs exposure
Protocol: as §1

A549 = test: SRB percentage growth inhibition (NCI protocol); assay type: cell-based; conditions: Homo sapiens, 48 hrs exposure
Protocol: as §1

DU145 = test: SRB percentage growth inhibition (NCI protocol); assay type: cell-based; conditions: Homo sapiens, DU-145, 48 hrs exposure
Protocol: as §1

SK-NS-H = test: SRB percentage growth inhibition (NCI protocol); assay type: cell-based; conditions: Homo sapiens, SK-N-SH, 48 hrs exposure
Protocol: as §1

SiHa [5] = test: SRB percentage growth inhibition (NCI protocol); assay type: cell-based; conditions: Homo sapiens, 48 hrs exposure
Protocol: as §1

502713 = test: SRB percentage growth inhibition (NCI protocol); assay type: cell-based; conditions: Homo sapiens, 48 hrs exposure
Protocol: as §1

Sw-620 = test: SRB percentage growth inhibition (NCI protocol); assay type: cell-based; conditions: Homo sapiens, 48 hrs exposure
Protocol: as §1

PC-3 = test: SRB percentage growth inhibition (NCI protocol); assay type: cell-based; conditions: Homo sapiens, 48 hrs exposure
Protocol: as §1

HL-60 cells [6] = test: Cell cycle analysis (FACS) by flow cytometry; assay type: cell-based, human; conditions: 1 μM, up to 24 h
Source text: The damage was more apparent with compound 8 and 6 (90% and 60% DNA damaged, respectively).

[7] = test system: Ehrlich Ascites Carcinoma (EAC); test: In vivo anticancer activity, Ehrlich ascites carcinoma; parameters: species or system Swiss mice; conditions: for No. of deaths / toxicity to animals: EAC mice
Protocol: Model: Ehrlich Ascites Carcinoma (EAC)
Ehrlich ascites carcinoma (EAC) cells were collected from the peritoneal cavity of the swiss mice harbouring 8-10 days old ascitic tumor. 1×10^7 EAC cells were injected intraperitoneally in Swiss mice selected for the experiment on day 0. The next day, animals were randomized and divided into different groups. The treatment groups contained 7 animals each and control group contained 10 animals. Treatment groups were treated with different doses of test substances intraperitoneally from day 1-9. One of the treatment group received 5-fluorouracil (20 mg/kg, i.p) and it served as positive control. The tumor bearing control group was similarly administered normal saline (0.2 ml, i.p.). On day 12, animals were sacrificed and ascitic fluid was collected from peritoneal cavity of each mouse for the evaluation of tumor growth. Percent tumor growth inhibition was calculated based on the total number of tumor cells present in the peritoneal cavity as on day 12 of the experiment using the following formula.

survivin = test: Western blot of cell death targets; assay type: cell-based, human; conditions: 1 μM, 24 h, HL-60
Protocol: Apoptosis was further characterized by the western blot analysis. Cells were treated with tested compounds at 1 μM for 24 h and expression of key apoptotic proteins like NF-kB, survivin; PARP, Bcl-2 and HSP-90 were analyzed through western blot. Both NF-kB and survivin are highly expressed in HL-60 cells. NF-kB is a transcriptional factor regulating the expression of several genes in the cells whereas survivin is a cell cycle regulated inhibitor of apoptosis protein (IAP), mostly over expressed in most of the tumors.

HL-60 cells [8] = test: Flow cytometric analysis of reactive oxygen species (DCFH-DA); assay type: cell-based, human; conditions: 1 μM, 24 h, HL-60, compared to control
Protocol: It was clear that these compounds were cytotoxic and induce apoptosis in HL-60 cells, now we have to found out the early events which were responsible for the induction of apoptosis like reactive oxygen species (ROS) or nitric oxide (NO) generation. Intracellular peroxide (ROS) in the cells was measured by DCFH-DA by using flow cytometry. Cells were incubated with tested compounds at 1 μM for 24 h in HL-60 cells and analyzed by flow cytometry after double staining with DCFH-DA (FIG. 7). Cells were analyzed for fluorescence intensity in FL1 vs. cell count. There was hardly any DCF fluorescence (ROS positive cells) in the untreated HL-60 cells, and this status remained unchanged when cells were incubated for 24 hr with compounds 7 and 8. […] Compounds 4 and 6 also induce the generation of peroxide in HL-60 cells (31 and 16% increase, respectively).

MCF-7 [9] = test: MTT inhibition of cell proliferation; assay type: cell-based; conditions: Homo sapiens, MCF7, 48 h
Source text: (§2) In order to determine the mode of action of cell death in cancer cells, first we explored the cytotoxic potential of different structural analogs of benzothiazoles on different human cancer cell lines. […] These compounds have limited or no cytotoxicity to cervical cancer SiHa, HeLa cells, breast cancer MCF-7 cells and colon cancer HCT-15 cells.

HL-60 = test: MTT inhibition of cell proliferation; assay type: cell-based; conditions: Homo sapiens, 48 h
Source text: as §2

HCT-15 [10] = test: MTT inhibition of cell proliferation; assay type: cell-based; conditions: Homo sapiens, 48 h
Source text: as §2

Hela [11] = test: MTT inhibition of cell proliferation; assay type: cell-based; conditions: Homo sapiens, 48 h
Source text: as §2

SiHa [12] = test: MTT inhibition of cell proliferation; assay type: cell-based; conditions: Homo sapiens, 48 h
Source text: as §2

With O=C(Nc1nc2ccc([N+](=O)[O-])cc2s1)c1cccnc1Nc1ccc(F)cc1 [Compound 6, N3-(6-nitro-1,3-benzothiazol-2-yl)-2-(4-fluoroanilino)nicotinamide] the IC50 [1] was 15 µM, the inhibition at 1 µM (IGR-OV-1) was 25% and the inhibition at 1 µM (MCF-7 [2]) was 39%. The inhibition at 1 µM (OVCAR-5; 1 μM) was 27%, the inhibition at 10 µM (OVCAR-5; 10 μM) was 53% and the inhibition at 1 µM (IMR-32; 1 μM) was 31%. It also gave an inhibition at 10 µM (IMR-32; 10 μM) of 33%, an inhibition at 1 µM (HCT-15 [3]; 1 μM) of 22% and an inhibition at 10 µM (HCT-15 [3]; 10 μM) of 55%. The inhibition at 1 µM (HEP-2; 1 μM) was 53%, the inhibition at 10 µM (HEP-2; 10 μM) was 52% and the inhibition at 1 µM (Hela [4]) was 40%. For the same compound, the inhibition at 1 µM (A549; 1 μM) was 27%, the inhibition at 10 µM (A549; 10 μM) was 18% and the inhibition at 1 µM (DU145; 1 μM) was 31%. The inhibition at 10 µM (DU145; 10 μM) was 51%, the inhibition at 10 µM (SK-NS-H) was 63% and the inhibition at 10 µM (SiHa [5]) was 23%. It also gave an inhibition at 10 µM 502713 of 66%, an inhibition at 1 µM (Sw-620; 1 μM) of 9% and an inhibition at 10 µM (Sw-620; 10 μM) of 67%. The inhibition at 1 µM (PC-3) was 26%, the “DNA damaged (sub-G0 fraction)” value (HL-60 cells [6]) was 60% and the “Growth Inhibition (%)” value ([7]; 20 mg/Kg i.p. day 1-9, read day 12) was 22.18%. The “No. of deaths / toxicity to animals” value ([7]; 20 mg/Kg i.p.) was 0/7, the “Growth Inhibition (%)” value ([7]; 30 mg/Kg i.p. day 1-9, read day 12) was 43.11% and the “No. of deaths / toxicity to animals” value ([7]; 30 mg/Kg i.p.) was 0/7. The “Growth Inhibition (%)” value ([7]; 40 mg/Kg i.p. day 1-9, read day 12) was 68.11%, the “No. of deaths / toxicity to animals” value ([7]; 40 mg/Kg i.p.) was 4/7 and considerable toxicity and the “No. of deaths / toxicity to animals” value ([7]; 40 mg/Kg i.p., listed as Comp 6) was 4/7. For the same compound, the “survivin level (western blot)” value (survivin) was “highest inhibition potential”, the “increase in DCF positive cell population (ROS)” value (HL-60 cells [8]) was 16% and the IC50 (MCF-7 [9]) was greater than 100 µM. The IC50 (HL-60) was 0.3 µM, the IC50 (HCT-15 [10]) was greater than 100 µM and the IC50 (Hela [11]) was 8 µM. The IC50 (SiHa [12]) was 7 µM.
